From patent US20220264923A1, “Taste Modifying Product” (Firmenich SA, priority 2011, published 2022)

test: Umami effect of pure amide in pure water, panel versus MSG; type: in vivo; details: amide at 20ppm in mineral water vs 0.05% MSG; RUI=(umami intensity of the amide)/(umami intensity of MSG)*10; average of 5-10 trained panelists
Description: The amides were evaluated at 20ppm in mineral water in comparison with 0.05% monosodium glutamate (MSG). […] The Relative umami intensity (RUI) was calculated as follows: […] The following table gives the average of the notes obtained from all panelists.

In order of rising “Relative umami intensity (RUI)” value:
1. COc1ccccc1CCNC(=O)/C=C/c1ccc(OC)c(OC)c1 [Amide 5]  3.2
2. COc1ccc(/C=C/C(=O)NCCc2ccc(OC)c(OC)c2)cc1OC [Amide 3]  3.3
3. COc1cc(CCNC(=O)/C=C/c2ccc(OC)c(OC)c2)cc(OC)c1 [Amide 6]  3.7
4. COc1ccc(/C=C/C(=O)NCCc2ccccc2)cc1OC [Amide 2]  3.8
5. COc1ccc(/C=C/C(=O)NCCc2ccc(OC)c(OC)c2)cc1 [Amide 14]  3.8
6. COc1ccc(CCNC(=O)/C=C/c2ccc(OC)c(OC)c2)cc1 [Amide 1, (E)-3-(3,4-dimethoxyphenyl)-N-(4-methoxyphenethyl)acrylamide]  5.6
7. COc1ccc(/C=C/C(=O)NCCc2ccc(C(C)C)cc2)cc1OC [Amide 12, (E)-3-(3,4-dimethoxyphenyl)-N-(4-isopropylphenethyl)acrylamide]  5.9
8. COc1ccc(/C=C/C(=O)NCCc2ccc(OC(C)C)cc2)cc1OC [Amide 9, (E)-3-(3,4-dimethoxyphenyl)-N-(4-isopropoxy-phenethyl)acrylamide]  6.5
9. CCOc1cccc(CCNC(=O)/C=C/c2ccc(OC)c(OC)c2)c1 [Amide 7, (E)-3-(3,4-dimethoxyphenyl)-N-(3-ethoxyphenethyl)acrylamide]  9.8
10. CCCOc1cccc(CCNC(=O)/C=C/c2ccc(OC)c(OC)c2)c1 [Amide 8, (E)-3-(3,4-dimethoxyphenyl)-N-(3-propoxyphenethyl)acrylamide]  9.9
11. COc1cccc(CCNC(=O)/C=C/c2ccc(OC)c(OC)c2)c1 [Amide 4, (E)-3-(3,4-dimethoxyphenyl)-N-(3-methoxyphenethyl)acrylamide]  10.2
12. CCc1ccc(CCNC(=O)/C=C/c2ccc(OC)c(OC)c2)cc1 [Amide 10, (E)-3-(3,4-dimethoxyphenyl)-N-(4-ethylphenethyl)acrylamide]  11.5
13. COc1ccc(/C=C/C(=O)NCCc2cccc(C)c2)cc1OC [Amide 17, (E)-3-(3,4-dimethoxyphenyl)-N-(3-methylphenethyl)acrylamide]  12.1
14. COc1ccc(/C=C/C(=O)NCCc2ccc(C)c(C)c2)cc1OC [Amide 11, (E)-3-(3,4-dimethoxyphenyl)-N-(3,4-dimethylphenethyl)acrylamide]  13.3
